Data on 2 molecules can be found in patent US8367116B2, “Buoyant polymer particles for delivery of therapeutic agents to the central nervous system” (Seacoast Neuroscience, Inc., priority 2002, dated 2013).

The structures appear in SMILES notation.

The test system of data set [1] is rat middle cerebral artery occlusion (MCAo) stroke model. The data set can be described thus: Rat MCAo stroke model, drugs delivered into the ventricle (CSF) by osmotic pump (FIG. 4, FIG. 5). It is filed as in vivo, Sprague-Dawley rat. To be noted: given within the CSF. The method, then: The parietal branch of the middle cerebral artery of the Sprague-Dawley rat is permanently occluded with a 10-0 nylon suture. The common carotid arteries are occluded temporarily for one hour. All drugs and vehicle are given beginning two hours post ischemia. Rats are sacrificed 24-hours later and the size of the infarct measured as a percent infarction of the total volume of the brain (mm^3) using imaging analysis. […], drugs are administered into the ventricle using an Alza osmotic pump (#20010) at a flow rate of 8 ul/hr over 24 hours.
Animals were treated with vehicle (n=23), Antioxidant (n=8), Prodrug (n=7) or an NMDA antagonist (n=7).

The conditions of data set [2]: cited from earlier work.
Data set [3] deals with corticospinal tract axons. Briefly: Severed corticospinal tract model, inosine infused into the motor cortex, axon tracing. The conditions noted are these: after 14 days of treatment. The class given is in vivo, rats. From the text:
In one model, one side of the corticospinal tract in rats is severed as it courses through the brainstem. Inosine is then infused directly into the motor cortex of the brain, the site of origin for those axons descending into the non-injured side of the corticospinal tract. After 14 days of treatment, newly grown axon branches are traced by injecting a dye into the treated nerve cells in the cortex. Animals are then sacrificed and the spinal cord examined for histology evidence of new axon growth. […] These new axonal branches then continued to descend down the injured side of the corticospinal tract, effectively replacing severed axons with new ones. […] The number of collateral (new) axons ranged up to 2,500 per treated animal, compared to 28-170 axons seen in control animals.

For data set [4], the system named is rats with unilateral cortical infarcts (stroke). The conditions noted are these: cited from earlier work.
Where [5] appears, read: adult rats with unilateral cortical infarcts.

Take `C[N+](C)(C)CCOP(=O)(O)OP(=O)([O-])OC[C@H]1O[C@@H](n2ccc(N)nc2=O)[C@H](O)[C@@H]1O` [Citicholine, Cytidine-5′-diphosphocholine]: the “dose response on infarct” value in data set [1] was “dose response effect”. In addition, the “citicholine dose taken up into brain tissue” value in data set [2] (administered i.v.) is recorded as “about 2%”. Also, in data set [2] (administered orally), the “citicholine dose penetrating into brain tissue” value was “about 0.5%”. Moreover, in data set [2] (given through the blood stream), the “initial dose found in the brain” value is “less than 1%”.

On to `OC[C@H]1O[C@@H](n2cnc3c(O)ncnc32)[C@H](O)[C@@H]1O` [Inosine], for which, in data set [3] (almost all treated animals), the “collateral sprouting of axons from uninjured to injured side of corticospinal tract” value is recorded as “extensive collateral sprouting of axons”. Moreover, the “number of collateral (new) axons per treated animal” value in data set [3] (control animals 28-170 axons) is reported as “up to 2,500”. In addition, in data set [4] (FIG. 7 B, E, after stroke), the “GAP-43 stained newly growing axons on the denervated side” value is “many”. In addition, the “axons crossing from undamaged side of brain to denervated side of spinal cord” value in data set [4] (FIG. 7 D, after stroke) was “causes many axons (red) to cross over”. In addition, in data set [4] (setting [5]), the “new projections to denervated areas of midbrain and spinal cord” value is “stimulated neurons on the undamaged side of the brain to extend new projections”; the “performance on behavioral measures” value was “improved performance”. For the same molecule, the “recovery of limb function” value in data set [4] (intravenous administration, same animal model) was “little or no significant recovery”.
